What is called Ki is the dissociation constant of the complex between target and ligand, obtained from inhibition or displacement.

Molecules are shown by their SMILES. Active and inactive are the calls of the source. The rule behind the calls is not given here. Where only a bound is given, the exact number is not on record here.

Ki and Activity data for 20 molecules are collected here from ChEMBL document CHEMBL4219250, “Kröhnke pyridines: Rapid and facile access to Mcl-1 inhibitors” (Bioorg Med Chem Lett, 2018).

The target in one test is T1, Induced myeloid leukemia cell differentiation protein Mcl-1 (Homo sapiens, UniProt Q07820). The test can be described thus: Displacement of TAMRA-Bak peptide from His6-MBP-tagged recombinant human MCl-1 (172 to 327 residues) expressed in HMS174 (DE3) cells by fluorescence polarization assay. A general note: Polarisation of emitted light reports the rotation of a fluorescent probe.
T1 sequence (Q07820 whole entry, the tested form may be a part): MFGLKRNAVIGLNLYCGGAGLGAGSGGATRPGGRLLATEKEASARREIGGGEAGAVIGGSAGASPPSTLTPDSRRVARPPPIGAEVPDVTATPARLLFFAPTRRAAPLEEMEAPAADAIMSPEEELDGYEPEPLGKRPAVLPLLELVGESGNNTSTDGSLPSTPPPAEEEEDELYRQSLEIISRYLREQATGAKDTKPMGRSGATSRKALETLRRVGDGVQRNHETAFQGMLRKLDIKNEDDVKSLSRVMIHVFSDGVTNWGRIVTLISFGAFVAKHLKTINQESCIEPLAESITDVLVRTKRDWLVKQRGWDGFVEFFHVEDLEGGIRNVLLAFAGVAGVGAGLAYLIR
Take `CC(C)Oc1ccc(-c2cc(-c3ccc(Oc4ccccc4)cc3)cc(C(=O)O)n2)cc1`: the Ki was determined as 7.33 µM. As for `CC(C)Oc1ccc(-c2cc(C(=O)O)nc(-c3ccc(OC(C)C)cc3OC(C)C)c2)cc1`, the Ki is 19.7 µM. On the same count and under the same terms, then `O=C(O)c1cc(-c2ccc(Br)cc2)cc(-c2ccc(Br)cc2)n1`, with 40 µM; and `O=C(O)c1cc(-c2ccc(Oc3ccccc3)cc2)cc(-c2ccccc2Br)n1`, with 10.3 µM; and `CC(C)Oc1ccc(-c2cc(C(=O)O)nc(-c3ccc(OC(C)C)cc3)c2)cc1`, with 28.8 µM. The same measure, in the same setting: then `O=C(O)c1cc(-c2ccc(Br)cc2)nc(-c2ccc(Oc3ccccc3)cc2)c1`, with 4.43 µM. Same read-out and setting: for `CC(C)Oc1ccc(-c2cc(C(=O)O)nc(-c3ccc(OCc4ccccc4)cc3)c2)cc1` the value was 9.77 µM; for `O=C(O)c1cc(-c2ccc(Br)cc2)cc(-c2ccccc2)n1`, 100 µM; for `O=C(O)c1cc(-c2ccc(Oc3ccccc3)cc2)cc(-c2ccc3c(c2)OCO3)n1`, 38.2 µM.

Take `O=C(O)c1cc(-c2ccc(Br)cc2)cc(-c2ccc3c(c2)OCO3)n1`: the Ki was > 100 µM. The same measure, in the same setting: for `COc1ccc(-c2cc(-c3ccc(Oc4ccccc4)cc3)cc(C(=O)O)n2)cc1` the value was 10.9 µM; for `O=C(O)c1cc(-c2ccc(Oc3ccccc3)cc2)cc(-c2cccc(Br)c2)n1`, 8.47 µM; for `O=C(O)c1cc(-c2ccc(Oc3ccccc3)cc2)cc(-c2ccccc2)n1`, 9.24 µM. Take `O=C(O)c1cc(-c2ccc(Oc3ccccc3)cc2)cc(-c2ccc(OCc3ccccc3)cc2)n1`: the Ki was 6.1 µM. The same measure, in the same setting: for `O=C(O)c1cc(-c2ccc(OCc3ccccc3)cc2)cc(-c2ccc(OCc3ccccc3)cc2)n1` the value was 9.22 µM; for `O=C(O)c1cc(-c2ccc(Br)cc2)cc(-c2ccc(Cl)cc2)n1`, 40 µM; for `COc1ccc(-c2cc(-c3ccc(Br)cc3)cc(C(=O)O)n2)cc1`, 40 µM.

In the case of `O=C(O)c1cc(-c2ccc(Oc3ccccc3)cc2)cc(-c2ccc(Br)cc2)n1`, the Ki was found to be 7.44 µM.

Consider `O=C(O)c1cc(-c2ccc(Br)cc2)cc(-c2ccc(OCc3ccccc3)cc2)n1`, for which the Ki is 7.6 µM. On the same count and under the same terms, for `O=C(O)c1cc(-c2ccc(Oc3ccccc3)cc2)cc(-c2ccc([N+](=O)[O-])cc2)n1` the value was 13.7 µM.

A further test deals with T1, Induced myeloid leukemia cell differentiation protein Mcl-1. The test can be described thus: Binding affinity to 15N-labeled His6-MBP-tagged recombinant human MCl-1 (172 to 327 residues) expressed in HMS174 (DE3) cells by two-dimensional1H-15N HSQC NMR spectra method. It is filed as cell-based.
For the molecule `O=C(O)c1cc(-c2ccc(Br)cc2)nc(-c2ccc(Oc3ccccc3)cc2)c1`, the outcome was Active.
